Source: paper PMC7822874, “Chemoprotective antimalarials identified through quantitative high-throughput screening of Plasmodium blood and liver stage parasites” (Scientific Reports, 2021)
Values joined by “and” are separate entries in the source; they are usually repeats but may differ in a detail not shown here. Identical values can stand only once.

Experiments:
[1] = system: T1, Plasmodium falciparum Dd2-attB (parental line), asexual blood stages; experiment: microbe, parasite or virus in culture; design: replicate k of 3 (each line is one of three independent assays; the three lines of one compound and parasite line follow each other); conditions: n = 1; for Individual replicates / Log AC50 (M): 72 h; for AC50: Plasmodium falciparum, DD2, 72 h, read-out: Individual replicates / Log AC50 (converted)
T1 construct: Dd2-attB, the isogenic parental line
In short: (§1)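 Three independent runs, compound subset only; parental vs ScDHODH line compared by two-sided Student's t-test.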

[2] = system: T2, Plasmodium falciparum Dd2-attB-ScDHODH (transgenic line expressing yeast DHODH), asexual blood stages; experiment: organism not typed; design: replicate k of 3 (each line is one of three independent assays; the three lines of one compound and parasite line follow each other)
T2 construct: Dd2-attB-ScDHODH, the transgenic line that expresses yeast DHODH
In short: as §1

[3] = 72 h; n = 1; read-out: Individual replicates / Log AC50 (converted)

Structure (SMILES) | Individual replicates / Log AC50 (M) [1] | AC50 [1] [µM] | Individual replicates / Log AC50 (M) ([2]; 72 h, n = 1) | AC50 [2, 3] [µM] | Individual replicates / Log AC50 (M) ([2]; 72 h; n = 1)
Oc1ccc(CNc2ccccn2)c2cccnc12 [NCGC00184898-01] | -4.7486 Log AC50 (M) and -4.6986 Log AC50 (M) | 17.8 | -4.7486 Log AC50 (M) | 14.2 | –
CCO/C=C(\C#N)C(=O)N1CCCN(c2cc(NCCC(=O)OC)nc(-c3ccccn3)n2)CC1 [NCGC00420783-01] | -5.0986 Log AC50 (M) and -5.0486 Log AC50 (M) | 8.94 | -5.0486 Log AC50 (M) and -4.8986 Log AC50 (M) | 10 | –
COC(=O)c1ccc(O)c2ncc(N3CC[C@@H](N)C3)cc12 [NCGC00241044-01] | -4.8986 Log AC50 (M) and -5.0486 Log AC50 (M) | 7.1 | -5.1986 Log AC50 (M) and -5.0986 Log AC50 (M) | 11.3 | –
CN(C)c1cnc2c(O)ccc(C(=O)O)c2c1 [NCGC00189499-01] | -4.7486 Log AC50 (M) | 14.2 | -4.9486 Log AC50 (M) | 14.2 | –
CCOC(=O)c1ccc(O)c2ncc(-c3ccc(C(=N)N)cc3)cc12 [NCGC00241050-01] | – | 17.8 | – | 20 | -4.6986 Log AC50 (M)
CN1CCN(CCCNC(=O)c2cccc(-c3cc(O)c4ncccc4c3)c2)CC1 [NCGC00247740-01] | -4.7986 Log AC50 (M) and -4.7486 Log AC50 (M) | 15.9 | -4.7486 Log AC50 (M) and -4.7986 Log AC50 (M) | 17.8 | –
O=C(O)c1ccc(N(CCN2CCC(F)(F)CC2)c2ccc(F)cc2)cn1 [NCGC00390011-01] | -4.7486 Log AC50 (M) | 20 | – | 17.8 | –
CCCCOC(=O)c1ccnc2cc(C(OCCN3CCCCC3)c3ccccc3C)sc12 (stereo not drawn) [NCGC00481621-01] | -5.0986 Log AC50 (M) and -5.0486 Log AC50 (M) | 8.94 | -4.7986 Log AC50 (M) | 14.2 | –
CN(C)CCn1nc(-c2ccccc2)nc1-c1ccccc1O [NCGC00390083-01] | -5.1486 Log AC50 (M) and -5.1986 Log AC50 (M) | 7.1 | -5.1486 Log AC50 (M) | 7.97 | –
CN(C)CC1CCCN(C2CCN(C(=O)c3cccc(-c4cc(O)c5ncccc5c4)c3)CC2)C1 (stereo not drawn) [NCGC00247737-01] | -5.3986 Log AC50 (M) and -5.3486 Log AC50 (M) | 5.64 | -5.4486 Log AC50 (M) | 6.33 | –
CCCN1C(CC(C)C)=N[S+](=O)([O-])c2cc(NC(=O)c3cccs3)ccc21 [NCGC00473217-02] | -7.0986 Log AC50 (M) and -6.8486 Log AC50 (M) and -6.8986 Log AC50 (M) | – | -6.3986 Log AC50 (M) and -6.0986 Log AC50 (M) and -6.3486 Log AC50 (M) | – | –
CN1CCN(C(=O)c2ccc(-c3cnc4c(O)ccc(C(=O)O)c4c3)cc2)CC1 [NCGC00189504-01] | -4.7986 Log AC50 (M) | 17.8 | -4.7486 Log AC50 (M) | 15.9 | –
Cc1nn2c(c1-c1ccccc1-c1ccccc1)N(Cc1cccc(C#N)c1)CCC2 [NCGC00499314-01] | -5.1486 Log AC50 (M) and -5.0486 Log AC50 (M) | 8.94 | -4.9986 Log AC50 (M) and -5.0986 Log AC50 (M) | 10 | –
COc1ccnc(NCc2ccc(O)c3ncccc23)c1 [NCGC00241023-01] | -4.7986 Log AC50 (M) | 15.9 | – | 12.6 | -4.8986 Log AC50 (M)
Oc1ccc(CNc2ccc3ccccc3n2)c2cccnc12 [NCGC00241029-01] | -4.8986 Log AC50 (M) and -5.0486 Log AC50 (M) | 7.1 | -4.8986 Log AC50 (M) | 7.1 | –
Oc1ccc(NCc2ccccc2F)c2cccnc12 [NCGC00184883-01] | -5.0986 Log AC50 (M) and -5.0486 Log AC50 (M) | 12.6 | -5.0986 Log AC50 (M) | 12.6 | –

Structure (SMILES) | Individual replicates / Log AC50 (M) [1] | AC50 [1] [µM] | Individual replicates / Log AC50 (M) ([2]; 72 h, n = 1) | AC50 [2, 3] [µM] | Individual replicates / Log AC50 (M) ([2]; 72 h; n = 1)
CCc1nc2c(sc3nc4c(cc32)COC(C)(C)C4)c(=O)n1Cc1ccco1 [NCGC00053301-03] | – | 17.8 | – | 10 | –
N#CNC(=O)c1ccnc2cc(C(OCCN3CCCCC3)c3ccccc3Cl)sc12 (stereo not drawn) [NCGC00483126-01] | -4.8986 Log AC50 (M) and -4.7486 Log AC50 (M) | 14.2 | -4.7986 Log AC50 (M) | 15.9 | –
O=C(CC[S+](=O)([O-])c1nc(-c2cccs2)cc(C(F)(F)F)n1)Nc1ccc(OC(F)(F)F)cc1 [NCGC00103927-03] | -4.7986 Log AC50 (M) | 17.8 | -4.8486 Log AC50 (M) | 15.9 | –
O=C(Nc1ccccc1F)c1ccc(O)c2ncccc12 [NCGC00183800-01] | -5.1986 Log AC50 (M) and -5.2486 Log AC50 (M) | 7.1 | -5.2986 Log AC50 (M) and -5.0486 Log AC50 (M) | 5.64 | –
O=C(O)c1ccnc(-n2ncc(C(CC3CC3)OCCN3CCCCC3)c2-c2cccc(-c3ccccc3)c2)c1 (stereo not drawn) [NCGC00487050-01] | -4.7986 Log AC50 (M) and -4.8486 Log AC50 (M) | 15.9 | -4.7986 Log AC50 (M) and -4.7486 Log AC50 (M) | 17.8 | –
C=CC(=O)Nc1cccc(C(OCCN2CCCCC2)c2cc3nccc(C(=O)OC(C)C)c3s2)c1 (stereo not drawn) [NCGC00493267-01] | -5.1486 Log AC50 (M) and -5.0486 Log AC50 (M) | 8.94 | -5.0486 Log AC50 (M) and -4.7986 Log AC50 (M) | 7.97 | –
C/C(=N\NC(=S)N1CCN(c2ccccn2)CC1)c1ccccn1 [NCGC00386445-01] | -5.3486 Log AC50 (M) | 4.48 | – | 4.48 | -5.3486 Log AC50 (M)
O=C(CCc1ccccc1)NC(c1cccs1)c1cc(Cl)c2cccnc2c1O (stereo not drawn) [MLS000703748-02] | -5.4486 Log AC50 (M) | 3.99 | – | 3.99 | -5.3986 Log AC50 (M)
CC(OCCN1CCCCC1)c1cnn(-c2cc(CO)ccn2)c1-c1cccc(-c2ccccc2)c1 (stereo not drawn) [NCGC00479246-01] | -5.5486 Log AC50 (M) and -5.3986 Log AC50 (M) | 3.56 | -5.3486 Log AC50 (M) | 3.56 | –
COC(=O)c1ccnc2cc(C(OCCC3CCCN3C)c3ccccc3Cl)sc12 (stereo not drawn) [NCGC00481040-01] | -5.0986 Log AC50 (M) and -4.9486 Log AC50 (M) | 8.94 | -4.8486 Log AC50 (M) | 12.6 | –
CCOC(=O)CCNc1cc(N2CCc3ccccc3CC2)nc(-c2cccnc2)n1 [NCGC00351550-01] | -4.8986 Log AC50 (M) | 14.2 | -4.7986 Log AC50 (M) | – | –
CC(C)c1c(-c2cnn(C(C)(C)C)c2)[nH]c2c(C#N)cnn2c1=O [NCGC00488278-03] | -4.7486 Log AC50 (M) | – | -4.8986 Log AC50 (M) | – | –
CCOC(=O)CCNc1cc(N2CCc3ccccc3CC2)nc(-c2ccccn2)n1 [NCGC00344626-04] | -5.2986 Log AC50 (M) and -5.2486 Log AC50 (M) and -5.0486 Log AC50 (M) | – | -5.2986 Log AC50 (M) and -4.9486 Log AC50 (M) | – | –
CCOC(=O)c1ccc(OC(C)=O)c2ncc(N3CCOCC3)cc12 [NCGC00244523-01] | -5.3486 Log AC50 (M) and -5.3986 Log AC50 (M) | 4.48 | – | 4.48 | -5.3486 Log AC50 (M)
CCOC(=O)CCNc1cc(N2CCc3ccccc3CC2)nc(-c2cccnc2)n1 [NCGC00351550-02] | -4.8486 Log AC50 (M) (2×) and -4.7486 Log AC50 (M) | – | -5.0986 Log AC50 (M) and -4.7986 Log AC50 (M) | – | –
